Assay results taken from ChEMBL document CHEMBL5505958, “Optimization of sequence and chiral content enhances therapeutic potential of tilapia piscidin peptides” (Eur J Med Chem, 2024).
Values after ≈ are worked out from the molar mass of the structure shown.

Key:
[1] = test system: Enterococcus faecalis; assay: Antibacterial activity against Enterococcus faecalis 10066 assessed as inhibition of bacterial growth incubated for 16 to 20 hrs; assay type: functional; conditions: time 16-20 hrs
[2] = test system: Enterococcus faecium; assay: Antibacterial activity against Enterococcus faecium 10067 assessed as inhibition of bacterial growth incubated for 16 to 20 hrs; assay type: functional; conditions: time 16-20 hrs
[3] = test system: Escherichia coli; assay: Bactericidal activity against Escherichia coli 10675 assessed as inhibition of bacterial growth incubated for 16 to 20 hrs; assay type: functional; conditions: time 16-20 hrs
[4] = test system: Vibrio vulnificus; assay: Antibacterial activity against Vibrio vulnificus 204 assessed as inhibition of bacterial growth incubated for 16 to 20 hrs in presence of human serum; assay type: functional; conditions: time 16-20 hrs
[5] = test system: Staphylococcus aureus; assay: Bactericidal activity against Staphylococcus aureus 10780 assessed as inhibition of bacterial growth incubated for 16 to 20 hrs; assay type: functional; conditions: time 16-20 hrs
[6] = test system: Salmonella enterica; assay: Antibacterial activity against Salmonella enterica 15455 assessed as inhibition of bacterial growth incubated for 16 to 20 hrs in presence of human serum; assay type: functional; conditions: time 16-20 hrs
[7] = test system: Salmonella typhimurium; assay: Antibacterial activity against Salmonella typhimurium DT104 assessed as inhibition of bacterial growth incubated for 16 to 20 hrs in presence of human serum; assay type: functional, Salmonella enterica subsp. enterica serovar Typhimurium; conditions: Salmonella enterica, time 16-20 hrs
[8] = test system: Klebsiella pneumoniae; assay: Bactericidal activity against Klebsiella pneumoniae 10692 assessed as inhibition of bacterial growth incubated for 16 to 20 hrs; assay type: functional; conditions: time 16-20 hrs
[9] = test system: Yersinia enterocolitica; assay: Bactericidal activity against Yersinia enterocolitica 13999 assessed as inhibition of bacterial growth incubated for 16 to 20 hrs; assay type: functional; conditions: time 16-20 hrs
[10] = test system: Klebsiella pneumoniae; assay: Bactericidal activity against Klebsiella pneumoniae BAA 2473 assessed as inhibition of bacterial growth incubated for 16 to 20 hrs; assay type: functional; conditions: time 16-20 hrs
[11] = test system: Klebsiella oxytoca; assay: Antibacterial activity against Klebsiella oxytoca 13985 assessed as inhibition of bacterial growth incubated for 16 to 20 hrs; assay type: functional; conditions: time 16-20 hrs
[12] = test system: Salmonella enterica; assay: Bactericidal activity against Salmonella enterica 15455 assessed as inhibition of bacterial growth incubated for 16 to 20 hrs; assay type: functional; conditions: time 16-20 hrs
[13] = test system: Escherichia coli; assay: Antibacterial activity against Escherichia coli 10675 assessed as inhibition of bacterial growth incubated for 16 to 20 hrs in presence of human serum; assay type: functional; conditions: time 16-20 hrs
[14] = test system: Rhizopus arrhizus; assay: Fungicidal activity against Rhizopus oryzae 34550 assessed as inhibition of fungal growth incubated for 16 to 20 hrs in presence of human serum; assay type: functional; conditions: time 16-20 hrs
[15] = test system: Acinetobacter baumannii; assay: Antibacterial activity against Acinetobacter baumannii 10591 assessed as inhibition of bacterial growth incubated for 16 to 20 hrs; assay type: functional; conditions: time 16-20 hrs
[16] = test system: Staphylococcus haemolyticus; assay: Bactericidal activity against Staphylococcus haemolyticus 15237 assessed as inhibition of bacterial growth incubated for 16 to 20 hrs; assay type: functional; conditions: time 16-20 hrs
[17] = test system: Klebsiella pneumoniae; assay: Bactericidal activity against Klebsiella pneumoniae TL 297 assessed as inhibition of bacterial growth incubated for 16 to 20 hrs in presence of human serum; assay type: functional; conditions: time 16-20 hrs
[18] = test system: Enterococcus faecium; assay: Antibacterial activity against Enterococcus faecium 10067 assessed as inhibition of bacterial growth incubated for 16 to 20 hrs in presence of human serum; assay type: functional; conditions: time 16-20 hrs
[19] = test system: Enterococcus faecium; assay: Bactericidal activity against Enterococcus faecium 10067 assessed as inhibition of bacterial growth incubated for 16 to 20 hrs; assay type: functional; conditions: time 16-20 hrs
[20] = test system: Klebsiella oxytoca; assay: Bactericidal activity against Klebsiella oxytoca 13985 assessed as inhibition of bacterial growth incubated for 16 to 20 hrs in presence of human serum; assay type: functional; conditions: time 16-20 hrs
[21] = test system: Klebsiella oxytoca; assay: Antibacterial activity against Klebsiella oxytoca 13985 assessed as inhibition of bacterial growth incubated for 16 to 20 hrs in presence of human serum; assay type: functional; conditions: time 16-20 hrs
[22] = test system: Escherichia coli; assay: Antibacterial activity against Escherichia coli 10675 assessed as inhibition of bacterial growth incubated for 16 to 20 hrs; assay type: functional; conditions: time 16-20 hrs
[23] = test system: Enterococcus faecium; assay: Bactericidal activity against Enterococcus faecium 10067 assessed as inhibition of bacterial growth incubated for 16 to 20 hrs in presence of human serum; assay type: functional; conditions: time 16-20 hrs
[24] = test system: Pseudomonas aeruginosa; assay: Bactericidal activity against Pseudomonas aeruginosa 19660 assessed as inhibition of bacterial growth incubated for 16 to 20 hrs in presence of human serum; assay type: functional; conditions: time 16-20 hrs
[25] = test system: Enterococcus faecalis; assay: Bactericidal activity against Enterococcus faecalis 10066 assessed as inhibition of bacterial growth incubated for 16 to 20 hrs; assay type: functional; conditions: time 16-20 hrs
[26] = test system: Vibrio vulnificus; assay: Antibacterial activity against Vibrio vulnificus 204 assessed as inhibition of bacterial growth incubated for 16 to 20 hrs; assay type: functional; conditions: time 16-20 hrs
[27] = test system: Pseudomonas aeruginosa; assay: Antibacterial activity against Pseudomonas aeruginosa 19660 assessed as inhibition of bacterial growth incubated for 16 to 20 hrs; assay type: functional; conditions: time 16-20 hrs
[28] = test system: Salmonella enterica; assay: Antibacterial activity against Salmonella enterica 15455 assessed as inhibition of bacterial growth incubated for 16 to 20 hrs; assay type: functional; conditions: time 16-20 hrs
[29] = test system: Rhizopus arrhizus; assay: Fungicidal activity against Rhizopus oryzae 34550 assessed as inhibition of fungal growth incubated for 72 hrs; assay type: functional
[30] = test system: Klebsiella pneumoniae; assay: Antibacterial activity against Klebsiella pneumoniae 10692 assessed as inhibition of bacterial growth incubated for 16 to 20 hrs; assay type: functional; conditions: time 16-20 hrs
[31] = test system: Klebsiella aerogenes; assay: Antibacterial activity against Enterobacter aerogenes 15630 assessed as inhibition of bacterial growth incubated for 16 to 20 hrs; assay type: functional; conditions: time 16-20 hrs
[32] = test system: Escherichia coli; assay: Bactericidal activity against Escherichia coli 10675 assessed as inhibition of bacterial growth incubated for 16 to 20 hrs in presence of human serum; assay type: functional; conditions: time 16-20 hrs
[33] = test system: Yersinia enterocolitica; assay: Antibacterial activity against Yersinia enterocolitica 13999 assessed as inhibition of bacterial growth incubated for 16 to 20 hrs; assay type: functional; conditions: time 16-20 hrs
[34] = test system: Salmonella enterica; assay: Bactericidal activity against Salmonella enterica 15455 assessed as inhibition of bacterial growth incubated for 16 to 20 hrs in presence of human serum; assay type: functional; conditions: time 16-20 hrs
[35] = test system: Pseudomonas aeruginosa; assay: Antibacterial activity against Pseudomonas aeruginosa 19660 assessed as inhibition of bacterial growth incubated for 16 to 20 hrs in presence of human serum; assay type: functional; conditions: time 16-20 hrs
[36] = test system: Acinetobacter baumannii; assay: Bactericidal activity against Acinetobacter baumannii 10591 assessed as inhibition of bacterial growth incubated for 16 to 20 hrs in presence of human serum; assay type: functional; conditions: time 16-20 hrs
[37] = test system: Klebsiella oxytoca; assay: Bactericidal activity against Klebsiella oxytoca 13985 assessed as inhibition of bacterial growth incubated for 16 to 20 hrs; assay type: functional; conditions: time 16-20 hrs
[38] = test system: Pseudomonas aeruginosa; assay: Bactericidal activity against Pseudomonas aeruginosa 19660 assessed as inhibition of bacterial growth incubated for 16 to 20 hrs; assay type: functional; conditions: time 16-20 hrs
[39] = test system: Klebsiella pneumoniae; assay: Antibacterial activity against Klebsiella pneumoniae TL 297 assessed as inhibition of bacterial growth incubated for 16 to 20 hrs in presence of human serum; assay type: functional; conditions: time 16-20 hrs
[40] = test system: Klebsiella pneumoniae; assay: Antibacterial activity against Klebsiella pneumoniae BAA 2473 assessed as inhibition of bacterial growth incubated for 16 to 20 hrs; assay type: functional; conditions: time 16-20 hrs
[41] = test system: Staphylococcus haemolyticus; assay: Antibacterial activity against Staphylococcus haemolyticus 15237 assessed as inhibition of bacterial growth incubated for 16 to 20 hrs; assay type: functional; conditions: time 16-20 hrs
[42] = test system: Salmonella typhimurium; assay: Bactericidal activity against Salmonella typhimurium DT104 assessed as inhibition of bacterial growth incubated for 16 to 20 hrs in presence of human serum; assay type: functional, Salmonella enterica subsp. enterica serovar Typhimurium; conditions: Salmonella enterica, time 16-20 hrs
[43] = test system: Acinetobacter baumannii; assay: Bactericidal activity against Acinetobacter baumannii 10591 assessed as inhibition of bacterial growth incubated for 16 to 20 hrs; assay type: functional; conditions: time 16-20 hrs
[44] = test system: Salmonella typhimurium; assay: Bactericidal activity against Salmonella typhimurium DT104 assessed as inhibition of bacterial growth incubated for 16 to 20 hrs; assay type: functional, Salmonella enterica subsp. enterica serovar Typhimurium; conditions: Salmonella enterica, time 16-20 hrs
[45] = test system: Vibrio vulnificus; assay: Bactericidal activity against Vibrio vulnificus 204 assessed as inhibition of bacterial growth incubated for 16 to 20 hrs in presence of human serum; assay type: functional; conditions: time 16-20 hrs
[46] = test system: Salmonella typhimurium; assay: Antibacterial activity against Salmonella typhimurium DT104 assessed as inhibition of bacterial growth incubated for 16 to 20 hrs; assay type: functional, Salmonella enterica subsp. enterica serovar Typhimurium; conditions: Salmonella enterica, time 16-20 hrs
[47] = test system: Staphylococcus aureus; assay: Antibacterial activity against Staphylococcus aureus 10780 assessed as inhibition of bacterial growth incubated for 16 to 20 hrs; assay type: functional; conditions: time 16-20 hrs
[48] = test system: Klebsiella aerogenes; assay: Bactericidal activity against Enterobacter aerogenes 15630 assessed as inhibition of bacterial growth incubated for 16 to 20 hrs; assay type: functional; conditions: time 16-20 hrs
[49] = test system: Rhizopus arrhizus; assay: Antifungal activity against Rhizopus oryzae 34550 assessed as inhibition of fungal growth incubated for 16 to 20 hrs; assay type: functional; conditions: time 16-20 hrs
[50] = test system: Vibrio vulnificus; assay: Bactericidal activity against Vibrio vulnificus 204 assessed as inhibition of bacterial growth incubated for 16 to 20 hrs; assay type: functional; conditions: time 16-20 hrs
[51] = test system: Acinetobacter baumannii; assay: Antibacterial activity against Acinetobacter baumannii 10591 assessed as inhibition of bacterial growth incubated for 16 to 20 hrs in presence of human serum; assay type: functional; conditions: time 16-20 hrs

## C[C@@H](O)[C@H]1C(=O)N2C(C(=O)O)=C(S[C@@H]3CN[C@H](C(=O)N(C)C)C3)[C@H](C)[C@H]12 [MEROPENEM]
[1]
  MIC: 12.5 µM (≈ 4.79 µg/mL)
[2]
  MIC: 50 µM (≈ 19.2 µg/mL)
[3]
  MBC: 0.2 µM (≈ 0.0767 µg/mL)
[4]
  MIC: < 0.39 µM
[5]
  MBC: 3.13 µM (≈ 1.2 µg/mL)
[6]
  MIC: < 0.39 µM
[7]
  MIC: < 0.369 µM
[8]
  MBC: 0.2 µM (≈ 0.0767 µg/mL)
[9]
  MBC: < 1.56 µM
[10]
  MBC: 400 µM (≈ 153 µg/mL)
[11]
  MIC: < 0.39 µM
[12]
  MBC: < 1.56 µM
[13]
  MIC: 0.1 µM
[14]
  MFC: 100 µM
[15]
  MIC: 6.25 µM (≈ 2.4 µg/mL)
[16]
  MBC: < 1.56 µM
[17]
  MBC: 400 µM
[18]
  MIC: 100 µM
[19]
  MBC: 100 µM (≈ 38.3 µg/mL)
[20]
  MBC: < 0.39 µM
[21]
  MIC: < 0.39 µM
[22]
  MIC: 0.2 µM (≈ 0.0767 µg/mL)
[23]
  MBC: 100 µM
[24]
  MBC: 6.25 µM
[25]
  MBC: 100 µM (≈ 38.3 µg/mL)
[26]
  MIC: < 0.39 µM
[27]
  MIC: 3.13 µM (≈ 1.2 µg/mL)
[28]
  MIC: < 1.56 µM
[29]
  MFC: > 100 µM
[30]
  MIC: 0.2 µM (≈ 0.0767 µg/mL)
[31]
  MIC: 0.1 µM (≈ 0.0383 µg/mL)
[32]
  MBC: 0.1 µM
[33]
  MIC: < 1.56 µM
[34]
  MBC: < 0.39 µM
[35]
  MIC: 3.13 µM
[36]
  MBC: 6.25 µM
[37]
  MBC: 0.1 µM (≈ 0.0383 µg/mL)
[38]
  MBC: 6.25 µM (≈ 2.4 µg/mL)
[39]
  MIC: 200 µM
[40]
  MIC: 800 µM (≈ 307 µg/mL)
[41]
  MIC: < 1.56 µM
[42]
  MBC: < 0.39 µM
[43]
  MBC: 6.25 µM (≈ 2.4 µg/mL)
[44]
  MBC: > 100 µM
[45]
  MBC: < 0.39 µM
[46]
  MIC: < 1.56 µM
[47]
  MIC: 0.78 µM (≈ 0.299 µg/mL)
[48]
  MBC: 6.25 µM (≈ 2.4 µg/mL)
[49]
  MIC: > 100 µM
[50]
  MBC: < 0.39 µM
[51]
  MIC: 3.13 µM
